Results: patent US11844846B2, “Styrylbenzothiazole derivatives and uses in imaging methods” (Emory University, priority 2018, dated 2023)
Where “and” joins values, the source holds several entries; their conditions need not be identical. Equal entries are not always repeated. Entries after “also recorded” stand apart in the source; their conditions may differ. Where two headings read alike, the source gives them in different places.

Key:
[1] = biological target: T1, Lewy bodies in α-Syn A53T virus injected WT mice brain slices (Homo sapiens, UniProt P37840, A53T); test: staining of mouse brain slices with Lewy bodies; format: binding
T1 construct: from tissue; host or cells: brain (substantia nigra) of wild-type mice injected with α-Syn A53T virus
Method: (§1) To further explore whether the positive compounds selectively bind to the Lewy bodies, α-Syn A53T patient-derived mutant virus injected WT mice brain slices were employed. These mice display extensive Lewy bodies in the SN.
(§2) To further explore whether the positive compounds selectively bind to the Lewy bodies, a α-Syn A53T patient-derived mutant virus was injected into WT mice brain slices. These mice display extensive Lewy bodies in the Substantial nigra (SN). Moreover, P301S mice expressed neurofibrillary tangles (NFT). The Lewy bodies were labeled with p-α-Syn S129 antibody and the positive aggregates were also labeled with the fluorescent signals from the small molecules. […] However, it was worth noting that almost none of the tested compounds were reactive with NFT.

Tau PFFs = Tau PFFs (Homo sapiens, UniProt P10636); test: fluorescence spectroscopy titration with Tau PFFs; format: binding; conditions: 0.08 μM fibrils, 5 μM small molecule; result in words
Chain of Tau PFFs (P10636 whole entry): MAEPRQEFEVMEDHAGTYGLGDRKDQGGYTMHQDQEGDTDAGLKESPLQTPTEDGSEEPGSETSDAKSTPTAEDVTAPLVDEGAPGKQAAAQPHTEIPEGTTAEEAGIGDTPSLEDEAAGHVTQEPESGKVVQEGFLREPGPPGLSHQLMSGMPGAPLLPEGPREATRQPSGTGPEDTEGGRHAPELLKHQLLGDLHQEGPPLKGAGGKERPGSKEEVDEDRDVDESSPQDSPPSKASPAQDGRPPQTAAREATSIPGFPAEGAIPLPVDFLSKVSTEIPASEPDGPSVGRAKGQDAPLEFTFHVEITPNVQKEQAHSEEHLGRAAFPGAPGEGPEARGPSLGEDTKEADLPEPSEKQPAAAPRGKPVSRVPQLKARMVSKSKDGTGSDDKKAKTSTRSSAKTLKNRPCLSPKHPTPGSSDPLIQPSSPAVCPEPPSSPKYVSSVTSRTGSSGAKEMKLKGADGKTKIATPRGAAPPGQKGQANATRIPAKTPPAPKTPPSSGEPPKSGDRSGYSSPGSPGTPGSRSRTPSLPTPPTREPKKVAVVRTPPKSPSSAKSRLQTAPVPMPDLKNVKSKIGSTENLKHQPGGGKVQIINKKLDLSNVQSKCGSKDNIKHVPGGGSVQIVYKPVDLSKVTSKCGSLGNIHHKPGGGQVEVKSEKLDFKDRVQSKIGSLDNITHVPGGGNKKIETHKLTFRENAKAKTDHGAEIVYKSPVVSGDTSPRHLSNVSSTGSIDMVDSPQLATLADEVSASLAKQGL
Method: (§3) A fluorescent titration assay was conducted. The fluorescent emission intensities were determined with 0.08 μM of various fibrils in the presence of 5 μM of the small molecules.
(§4) To further investigate the selected compounds binding activities with α-Syn PFFs, fluorescence spectroscopy titrations were conducted to quantitatively measure compounds emission intensity when interacting with different concentrations of α-Syn PFFs. The UV spectrum of each compound was determined and selected for the optimal wavelength to conduct the fluorescence spectroscopic studies.

Aβ PFFs = biological target: T2, Aβ PFFs (Homo sapiens, UniProt P05067); test: fluorescence spectroscopy titration with Aβ PFFs; format: binding; conditions: 0.08 μM fibrils, 5 μM small molecule; result in words
T2 construct: counter-screening with Tau and Aβ PFFs
T2 sequence (P05067 672-713 limits assumed): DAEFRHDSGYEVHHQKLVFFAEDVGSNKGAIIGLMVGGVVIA
Method: as §3, §4

α-Syn PFFs = α-Syn PFFs (Homo sapiens, UniProt P37840); test: fluorescence spectroscopy titration with α-Syn PFFs; format: binding; conditions: 0.08 μM fibrils, 5 μM small molecule, result in words
Method: as §3, §4

[2] = biological target: T3, LBs and LNs in DLB and MSA patient brains (Homo sapiens, UniProt P37840); test: ex vivo screening on DLB and MSA patient brain sections; format: binding
T3 construct: from tissue; host or cells: brain sections of DLB and MSA patients
Text: (§5) Ex vivo screening was extended into human DLB, MSA and AD patient samples. […] Since there are detectable α-Syn aggregates in AD patient brains, these compounds colocalized with p-S129 positive α-Syn inclusions.
(§6) The ex vivo screening was extended into human DLB, MSA and AD patient samples. Neurodegenerative disease of DLB (dementia with Lewy Bodies) and MSA belongs to synucleinopathies with well-defined Lewy bodies.

α-Syn aggregated neurons = test: neuronal α-Syn aggregation model, fluorescent microscopy; format: cell-based; conditions: primary cultured neurons, AAV-α-Syn plus α-Syn PFFs
Text: (§7) A series of derivatives were synthesized by including an amino group and a methyl group on benzothiazole to increase the brain permeability and fluorescent signals. The derivatives were subsequently subjected to α-Syn PFFs binding assay and counter-screening with Tau and Aβ PFFs. […] These compounds were screened on the neuronal α-Syn, Tau and Aβ aggregation model for the binding selectivity. Primary cultured neurons were infected with AAV-α-Syn, AAV-Tau FL for 7 days, then treated with α-Syn, Tau or Aβ PFFs. In a few days, the positive compounds were added in the primary neurons with indicated aggregates and analyzed under fluorescent microscopy.
(§8) Primary cultured neurons were infected with AAV-α-Syn, AAV-Tau FL or AAV-APP fragment virus for 7 days, and then treated with α-Syn, Tau or Aβ PFFs by following the described protocols (Volpicelli-Daley et al., 2014). In a few days, the positive compounds were added in the primary neurons with indicated aggregation.

[3] = tested on: neurons with Aβ or Tau aggregates; test: neuronal Aβ and Tau aggregation models, fluorescent microscopy; format: cell-based; conditions: primary cultured neurons
Text: as §7, §8

[4] = tested on: senile plaques or NFT in AD; test: ex vivo screening on AD patient brain sections; format: binding, human
Text: as §5, §6

[5] = plasma-brain ratio study / in vivo PK of EU compounds; design: species or system mouse
Method: To address whether the selected compounds penetrate the brain, a plasma-brain ratio study was performed with EU04-03A, EU05-02A and EU05-02B.
To test whether these compounds are brain permeable in vivo, in vivo PK profiling was conducted to determine brain exposure.

[6] = tested on: NFT in Tau P301S and 3×Tg mice brain sections; test: staining of mouse brain sections with NFT; format: binding
Method: as §1, §2

[7] = biological target: pre-formed fibrils (PFFs) of α-Synuclein (Homo sapiens, UniProt P37840); test: in vitro binding assay with α-Syn PFFs; conditions: counter-screening, result in words
Text: The general strategy that was employed to screen the candidate Lewy body PET agents is summarized as follows: (a) To perform in vitro binding assay with Pre-formed fibrils (PFFs) of α-Syn and counter-screening with Tau and Aβ PFFs; (b) To test the positive compounds in the neuronal models with aggregated α-Syn, Tau or […]; (c) To screen with the brain slides from α-Syn mutant A53T virus injected WT mice, and counter-screen with aged 3×Tg (containing both senile plaques and NFT), and aged Tau P301S (NFT) brain sections; (d) to screen the patient brain sections from DLB and MSA against AD; (e) To determine the binding kinetics between α-Syn PFFs and positive hits; (f) To determine the candidates in vivo brain/plasma (B/P) ratios and the brain permeability; (g) To determine the in vivo PET images in α-Syn A53T with candidates and compare its images in 5XFAD and Tau P301S mice.
To perform in vitro binding assay, commercial compounds were screened (See FIG. 7B).
as §7
To perform in vitro binding assay, compounds were screened. […] An amino group and a methyl group in the benzothazole were added to increase its brain permeability and fluorescent signals. […] The synthesized derivatives were subsequently subjected to the α-Syn PFFs binding and counter-screen of Tau and Aβ PFFs as described above.

[8] = biological target: T4, senile plaques in 5×FAD and 3×Tg mice brain sections (Homo sapiens, UniProt P05067); test: staining of mouse brain sections with senile plaques; format: binding
T4 construct: Aβ-enriched senile plaques; from tissue; host or cells: brain sections of 5×FAD and 3×Tg mice
T4 sequence (P05067 672-713 limits assumed): as above

SMILES: COc1cc(/C=C/c2nc3ccc(N(C)C)cc3s2)ccc1O [EU-004-02A, (E)-4-(2-(6-(dimethylamino)benzo[d]thiazol-2-yl)vinyl)-2-methoxyphenol]
- staining of Lewy bodies (p-α-Syn S129 positive) [1]: signals were very weak

SMILES: CN(C)c1ccc2nc(/C=C/c3ccc(O)c(Br)c3)sc2c1 [EU-004-02B, (E)-2-bromo-4-(2-(6-(dimethylamino)benzo[d]thiazol-2-yl)vinyl)phenol]
- binding to Tau PFFs by fluorescent emission intensity (Tau PFFs): modest and weak binding activities toward these 3 PFFs
- binding to Aβ PFFs by fluorescent emission intensity (Aβ PFFs): modest and weak binding activities toward these 3 PFFs
- binding to α-Syn PFFs by fluorescent emission intensity (α-Syn PFFs): modest and weak binding activities toward these 3 PFFs

SMILES: CCNc1ccc2nc(/C=C/c3ccc(O)c(OC)c3)sc2c1 [EU-004-03A, (E)-4-(2-(6-(ethylamino)benzo[d]thiazol-2-yl)vinyl)-2-methoxyphenol]
- staining of LBs and LNs [2]: robust signals with LBs and LNs
- staining of LBs and LNs ([2]; listed as EU04-03A): co-stained with Lewy bodies
- fluorescent signal in α-Syn aggregated neurons (α-Syn aggregated neurons): positive for selective binding
- fluorescent signal in α-Syn aggregated neurons (α-Syn aggregated neurons; listed as EU04-03A): positive signals in α-Syn aggregated neurons
- fluorescent signal in neurons with Aβ or Tau aggregates [3]: negligible effects in neurons with Aβ or Tau aggregates
- binding to α-Syn PFFs by fluorescent emission intensity (α-Syn PFFs): but not EU-05-02A and EU-04-03A showed specific association with the PFFs
- staining of senile plaques or NFT (Aβ, AT8 positive aggregates) [4]: barely co-stained with anti-AD or AT8 positive aggregate signals
- staining of senile plaques or NFT (Aβ, AT8 positive aggregates) ([4]; listed as EU04-03A): barely recognized AT8 positive Tau NFT or Aβ aggregates in AD brains
- brain permeability ([5]; mice, i.v., result in words, listed as EU04-03A): swiftly penetrated the brain and exhibited much higher brain permeability compared to EU05-02A; also recorded: higher brain permeability than EU05-02B

SMILES: COc1cc(/C=C/c2nc3cc(C)c(N(C)C)cc3s2)ccc1O [EU-005-02A, (E)-4-(2-(6-(dimethylamino)-5-methylbenzo[d]thiazol-2-yl)vinyl)-2-methoxyphenol]
- staining of LBs and LNs [2]: robust signals with LBs and LNs
- staining of LBs and LNs ([2]; listed as EU05-02A): co-stained with Lewy bodies
- fluorescent signal in α-Syn aggregated neurons (α-Syn aggregated neurons): positive for selective binding
- fluorescent signal in α-Syn aggregated neurons (α-Syn aggregated neurons; listed as EU05-02A): positive signals in α-Syn aggregated neurons
- fluorescent signal in neurons with Aβ or Tau aggregates [3]: negligible effects in neurons with Aβ or Tau aggregates
- staining of Lewy bodies (p-α-Syn S129 positive) [1]: signals were very weak
- binding to Tau PFFs by fluorescent emission intensity (Tau PFFs): strongly bound to both α-Syn and Tau PFFs
- binding to α-Syn PFFs by fluorescent emission intensity (α-Syn PFFs): strongly bound to both α-Syn and Tau PFFs
- binding to α-Syn PFFs by fluorescent emission intensity (α-Syn PFFs; listed as EU-05-02A): but not EU-05-02A and EU-04-03A showed specific association with the PFFs
- staining of senile plaques or NFT (Aβ, AT8 positive aggregates) [4]: barely co-stained with anti-AD or AT8 positive aggregate signals
- staining of senile plaques or NFT (Aβ, AT8 positive aggregates) ([4]; listed as EU05-02A): barely recognized AT8 positive Tau NFT or Aβ aggregates in AD brains
- B/P ([5]; Male ICR Mouse, 5 mg/kg IV, 0.50 h, single animals, 5 mg/kg): 0.65 and 1.62 and 0.69
- B/P ([5]; Male ICR Mouse, 5 mg/kg IV, 1.00 h, single animals, 5 mg/kg): 0.46 and 0.26
- B/P ([5]; Male ICR Mouse, 5 mg/kg IV, 2.00 h, single animals, 5 mg/kg): 0.49 and 0.34
- Kp at 0.5 h ([5]; male, ICR, mouse, brain, iv, 5 mg/kg, Male ICR Mouse, 5 mg/kg IV, 0.50 h, read-out: B/P Mean): 0.99
- Kp at 1 h ([5]; male, ICR, mouse, brain, iv, 5 mg/kg, Male ICR Mouse, 5 mg/kg IV, 1.00 h, single animals, read-out: B/P): 0.52
- Kp at 1 h ([5]; male, ICR, mouse, brain, iv, 5 mg/kg, Male ICR Mouse, 5 mg/kg IV, 1.00 h, read-out: B/P Mean): 0.41
- Kp at 2 h ([5]; male, ICR, mouse, brain, iv, 5 mg/kg, Male ICR Mouse, 5 mg/kg IV, 2.00 h, single animals, read-out: B/P): 0.42
- Kp at 2 h ([5]; male, ICR, mouse, brain, iv, 5 mg/kg, Male ICR Mouse, 5 mg/kg IV, 2.00 h, read-out: B/P Mean): 0.41
- in vivo half-life / decay ([5]; mice, i.v. 5 mg/kg, result in words): decayed 2 h after i.v. administration

SMILES: Cc1ccc2c(c1)sc(-c1ccc(N(C)C)cc1)[n+]2C.[Cl-] [ThT, reference compound]
- staining of NFT [6]: co-localized with all of these aggregates in the brain sections
- binding selectivity α-Syn versus Aβ or Tau PFFs [7]: non-selectively interacted with these PFFs; also recorded: non-selectively interacted with both α-Syn and Tau PFFs
- staining of Lewy bodies (p-α-Syn S129 positive) [1]: co-localized with all of these aggregates in the brain sections; also recorded: co-localized with p-S129 aggregates in the brain sections
- staining of senile plaques [8]: co-localized with all of these aggregates in the brain sections
